Patent US9944654B2, “Nargenicin compounds and uses thereof as antibacterial agents” (priority 2014, dated 2018)
In brackets after ≈: the same amount, converted by molar mass. Where two headings read alike, the source gives them in different places.

Experiments:
[1] = tested on: Escherichia coli MB5747 (LS 883, tolC); experiment: microbe, parasite or virus in culture; type: cell-based; conditions: Escherichia coli, read-out: E. coli LS883 tolC (MIC), MHII broth; * = some reduction of growth versus control at […]
[2] = target: T1, S. aureus DnaE (DNA polymerase III α-subunit homolog from Staphylococcus aureus) (Staphylococcus aureus, UniProt Q5HF71); experiment: biochemical; type: biochemical
T1 construct: SaDnaE (S. aureus DnaE residues 1-1065); 6xHis (N); made in house; host or cells: E. coli BL21-AI
T1 sequence (Q5HF71 1-1065): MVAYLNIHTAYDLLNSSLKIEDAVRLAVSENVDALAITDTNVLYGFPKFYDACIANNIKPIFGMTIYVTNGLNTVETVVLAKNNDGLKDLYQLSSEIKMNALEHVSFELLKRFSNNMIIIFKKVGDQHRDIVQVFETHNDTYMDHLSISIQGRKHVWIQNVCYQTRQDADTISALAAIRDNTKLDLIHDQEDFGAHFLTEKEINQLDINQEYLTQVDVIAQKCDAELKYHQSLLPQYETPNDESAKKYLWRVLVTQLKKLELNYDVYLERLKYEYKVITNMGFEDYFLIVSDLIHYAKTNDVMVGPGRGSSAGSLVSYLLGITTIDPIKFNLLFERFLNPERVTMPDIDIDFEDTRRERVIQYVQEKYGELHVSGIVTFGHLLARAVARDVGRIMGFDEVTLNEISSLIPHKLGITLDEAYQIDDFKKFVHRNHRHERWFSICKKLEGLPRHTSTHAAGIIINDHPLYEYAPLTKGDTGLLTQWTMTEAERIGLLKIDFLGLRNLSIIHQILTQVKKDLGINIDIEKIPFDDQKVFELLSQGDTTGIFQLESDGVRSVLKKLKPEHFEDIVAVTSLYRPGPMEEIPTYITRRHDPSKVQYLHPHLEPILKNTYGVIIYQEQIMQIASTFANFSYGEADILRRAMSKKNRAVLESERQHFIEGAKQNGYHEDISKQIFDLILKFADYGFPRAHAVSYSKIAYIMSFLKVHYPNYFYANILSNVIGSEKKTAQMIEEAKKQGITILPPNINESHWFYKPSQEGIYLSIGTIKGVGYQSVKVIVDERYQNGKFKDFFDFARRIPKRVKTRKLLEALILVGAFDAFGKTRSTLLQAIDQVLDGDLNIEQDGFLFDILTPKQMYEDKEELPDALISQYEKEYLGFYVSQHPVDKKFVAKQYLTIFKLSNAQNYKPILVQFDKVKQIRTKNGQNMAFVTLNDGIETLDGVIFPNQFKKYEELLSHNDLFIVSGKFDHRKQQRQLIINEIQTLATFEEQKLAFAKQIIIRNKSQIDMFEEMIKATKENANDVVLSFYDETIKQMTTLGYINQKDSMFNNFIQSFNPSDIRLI
In short: (§1)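 3H-dTTP (0.011 mM) incorporation into DNase I-activated calf thymus DNA, alongside the other three dNTPs at 0.025 mM, measured by filter counting after TCA precipitation. Reactions ran 30 min at 30° C., started with purified N-His DnaE: 0.8 μg/ml for E. coli, 0.05 μg/ml for S. aureus.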

[3] = tested on: Pseudomonas aeruginosa MB5890 (CB1101, efflux-deleted); experiment: microbe, parasite or virus in culture; type: cell-based; conditions: Pseudomonas aeruginosa, read-out: P. aeruginosa MB5890 efflux-del (MIC), MHII broth; * = some reduction of growth versus control at […]
[4] = tested on: Staphylococcus aureus MB6266 (MRSA COL); experiment: Nargenicin antibacterial assay (MIC), S. aureus; type: cell-based; conditions: Staphylococcus aureus, MRSA, read-out: S. aureus COL (MIC), MHII broth + 50% human serum; * = some reduction of growth versus control at […]
[5] = tested on: Streptococcus pneumoniae MB6357 (CL 2883); experiment: Nargenicin antibacterial assay (MIC), S. pneumoniae; type: cell-based; conditions: Streptococcus pneumoniae, read-out: S. pneumoniae MB2883 (MIC), Isosensitest broth; * = some reduction of growth versus control at […]
[6] = target: T2, E. coli DnaE (DNA polymerase III α-subunit from Escherichia coli) (Escherichia coli, UniProt P10443); experiment: In vitro DnaE single enzyme assay (E. coli); type: biochemical
T2 construct: EcDnaE (E. coli DnaE residues 1-1160); 6xHis (N); made in house; host or cells: E. coli BL21(DE3)
T2 sequence (P10443 whole entry, the tested form may be a part): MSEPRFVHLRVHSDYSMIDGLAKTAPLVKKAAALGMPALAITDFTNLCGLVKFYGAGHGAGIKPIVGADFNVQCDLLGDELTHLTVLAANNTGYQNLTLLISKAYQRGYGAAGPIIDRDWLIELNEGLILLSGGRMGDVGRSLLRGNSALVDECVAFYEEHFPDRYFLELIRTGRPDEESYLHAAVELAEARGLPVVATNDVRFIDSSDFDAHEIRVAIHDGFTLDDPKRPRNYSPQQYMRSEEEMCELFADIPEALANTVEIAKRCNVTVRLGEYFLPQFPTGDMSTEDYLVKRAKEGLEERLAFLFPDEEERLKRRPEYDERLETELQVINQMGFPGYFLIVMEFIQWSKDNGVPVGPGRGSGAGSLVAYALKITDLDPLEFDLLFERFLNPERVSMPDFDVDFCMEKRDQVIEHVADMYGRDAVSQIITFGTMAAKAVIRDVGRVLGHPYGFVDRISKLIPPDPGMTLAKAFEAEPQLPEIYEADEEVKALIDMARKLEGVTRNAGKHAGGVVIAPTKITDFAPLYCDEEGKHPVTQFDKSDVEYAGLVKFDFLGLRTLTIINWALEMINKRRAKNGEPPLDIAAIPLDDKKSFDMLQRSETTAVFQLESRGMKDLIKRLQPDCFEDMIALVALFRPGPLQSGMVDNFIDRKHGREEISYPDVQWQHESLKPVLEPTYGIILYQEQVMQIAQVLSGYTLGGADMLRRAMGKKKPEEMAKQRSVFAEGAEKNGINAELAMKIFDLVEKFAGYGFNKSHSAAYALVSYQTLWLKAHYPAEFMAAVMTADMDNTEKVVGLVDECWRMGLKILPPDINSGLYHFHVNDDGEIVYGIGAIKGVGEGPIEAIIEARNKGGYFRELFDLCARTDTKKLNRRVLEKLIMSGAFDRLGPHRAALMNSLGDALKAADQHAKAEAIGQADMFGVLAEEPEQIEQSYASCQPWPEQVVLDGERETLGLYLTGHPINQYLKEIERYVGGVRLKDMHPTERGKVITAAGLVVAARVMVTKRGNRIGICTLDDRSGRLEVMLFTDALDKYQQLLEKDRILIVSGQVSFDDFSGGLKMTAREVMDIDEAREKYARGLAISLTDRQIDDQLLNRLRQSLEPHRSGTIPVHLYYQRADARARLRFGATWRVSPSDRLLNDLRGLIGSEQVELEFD
In short: as §1

[7] = read-out: E. coli DnaE IC50 (converted)
[8] = read-out: S. aureus DnaE IC50 (converted)

Row | Compound | MIC [1] | IC50 ([2]; S. aureus DnaE IC50) | MIC [3] | MIC [4] | MIC [5] | IC50 ([6]; E. coli DnaE IC50) | IC50 [6, 7] | IC50 [2, 8]
1 | CO[C@H]1C[C@H]2C=C[C@H]3[C@H]4O[C@]2(/C(C)=C/[C@@H](C)[C@@H]([C@@H](C)O)OC1=O)[C@@H]3[C@H](O)[C@@H](C)[C@@H]4N [Example 151, (3R,4S,7S,8aS,10aR,11R,12S,13S,14R,14aS,14bS,E)-12-amino-14-hydroxy-4-((R)-1-hydroxyethyl)-7-methoxy-1,3,13-trimethyl-3,4,8,8a,10a,11,12,13,14,14 a-decahydro-11,14b-epoxynaphtho [2,1-e]oxecin-6(7H)-one] | > 128 µg/mL | 4.98 µM | > 128 µg/mL | > 128 µg/mL | > 128 µg/mL | > 237 µM |  | 
2 | CO[C@H]1C[C@H]2C=C[C@H]3[C@H]4O[C@]2(/C(C)=C/[C@@H](C)[C@@H]([C@@H](C)O)OC1=O)[C@@H]3[C@H](OC(N)=O)[C@@H](C)[C@H]4O [Example 187] | 16 µg/mL (≈ 34.4 µM) | 0.387 µM | 32 µg/mL (≈ 68.7 µM) | > 128 µg/mL | > 128 µg/mL |  | > 215 µM | 
3 | CNS(=O)(=O)CCNC(=O)O[C@H](C)[C@H]1OC(=O)[C@@H](OC)C[C@H]2C=C[C@H]3[C@H]4O[C@]2(/C(C)=C/[C@H]1C)[C@@H]3[C@H](O)[C@@H](C)[C@H]4OC(=O)c1ccc[nH]1 [Example 13] | 8 µg/mL (≈ 11.8 µM) | < 0.00883 µM | > 128 µg/mL | 32 µg/mL | > 128 µg/mL |  | > 147 µM | 
4 | CO[C@H]1CC2C=C[C@H]3[C@H]4O[C@]2(/C(C)=C/[C@@H](C)[C@@H]([C@@H](C)OC(=O)NCCO)OC1=O)[C@@H]3[C@H](O)[C@@H](C)[C@H]4OC(=O)c1ccc[nH]1 (stereo partly drawn) [Example 15] | 4 µg/mL (≈ 6.64 µM) | < 0.00996 µM | 128 µg/mL (≈ 212 µM) | 8 µg/mL | > 128 µg/mL |  | ~183 µM | 
5 | CO[C@H]1C[C@H]2[C@@H]3O[C@@H]3[C@H]3[C@H]4O[C@]2(/C(C)=C/[C@@H](C)[C@@H]([C@@H](C)O)OC1=O)[C@@H]3[C@H](O)[C@@H](C)[C@H]4OC(=O)c1ccc[nH]1 [Example 160, (1aS, 1bS,3S,6S,7R,9aS,9bS,10R,11R,12R,13R,13aS,13bR,E)-10-hydroxy-6-((R)-1-hydroxyethyl)-3-methoxy-7,9,11-trimethyl-4-oxo-1 a,lb,2,3,4,6,7,9b,10,11,12,13,13a,13b-tetradecahydro-9a,13-epoxyoxireno[2′,3′:3,4]naphtho[2,1-e]oxecin-12-yl 1H-pyrrole-2-carboxylate] | > 8 µg/mL |  | > 128 µg/mL | > 8 µg/mL | > 128 µg/mL | > 188 µM |  | 4.14 µM
6 | CO[C@H]1C[C@H]2C=C[C@H]3[C@H]4O[C@]2(/C(C)=C/[C@@H](C)[C@@H]([C@@H](C)OC(=O)NCCN(C)C)OC1=O)[C@@H]3[C@H](O)[C@@H](C)[C@H]4OC(=O)c1ccc[nH]1 [Example 5] | 16 µg/mL (≈ 25.4 µM) |  | > 128 µg/mL | 32 µg/mL | > 128 µg/mL | > 159 µM |  | 0.0143 µM
7 | CO[C@H]1C[C@H]2C=C[C@H]3[C@H]4O[C@]2(/C(C)=C/[C@@H](C)[C@@H]([C@@H](C)O)OC1=O)[C@@H]3[C@H](O)[C@@H](C)[C@H]4OC(C)=O [Example 186] | 4 µg/mL (≈ 8.61 µM) | ~0.00969 µM | 16 µg/mL (≈ 34.4 µM) | 8 µg/mL | > 128 µg/mL |  | 64.6 µM | 
8 | CO[C@H]1C[C@H]2C[C@@H](O)[C@H]3[C@H]4O[C@]2(/C(C)=C/[C@@H](C)[C@@H]([C@@H](C)O)OC1=O)[C@@H]3[C@H](O)[C@@H](C)[C@H]4OC(=O)c1ccc[nH]1 [Example 194] | 128 µg/mL (≈ 240 µM) | 9.37 µM | > 128 µg/mL | > 128 µg/mL | > 128 µg/mL |  | > 187 µM | 
9 | CO[C@H]1C[C@H]2C=C[C@H]3[C@H]4O[C@]2(/C(C)=C/[C@@H](C)[C@@H]([C@@H](C)OC(=O)NCCc2ccccc2)OC1=O)[C@@H]3[C@H](O)[C@@H](C)[C@H]4OC(=O)c1ccc[nH]1 [Example 8] | > 128 µg/mL | 0.0679 µM | > 128 µg/mL | > 128 µg/mL | > 128 µg/mL |  | 45.3 µM | 
